Measurements as given in the NIST ThermoML archive (doi:10.1021/je0503305).
“And” between values parts separate entries of the source, which are not always exact repeats. Identical values can stand only once.

Columns and labels:
[1] = Crystal; for vapor or sublimation pressure: Calculated from knudsen effusion weight loss; for Normal melting temperature: DTA
[2] = Molar enthalpy of transition or fusion; conditions: Crystal; DSC

COC(=O)c1cccc(C(=O)O)c1 [1,3-benzenedicarboxylic acid, monomethyl ester]
[1]
Conditions	vapor or sublimation pressure
359.26 K	0.000134 kPa and 0.000136 kPa
361.24 K	0.000172 kPa and 0.000169 kPa
363.28 K	0.000211 kPa and 0.00021 kPa and 0.000202 kPa
365.26 K	0.000256 kPa and 0.000252 kPa and 0.000264 kPa
367.13 K	0.000313 kPa and 0.000311 kPa
369.28 K	0.000397 kPa and 0.000399 kPa and 0.000382 kPa
371.24 K	0.000499 kPa and 0.000487 kPa and 0.000474 kPa
373.12 K	0.000588 kPa and 0.000586 kPa and 0.000569 kPa
375.27 K	0.000773 kPa and 0.000759 kPa and 0.000741 kPa
377.24 K	0.000953 kPa and 0.000928 kPa and 0.000917 kPa
379.12 K	0.001122 kPa and 0.001111 kPa

Conditions	Molar enthalpy of transition or fusion [kJ/mol]	Normal melting temperature [°C]
[1]	–	193.53
[2]	36.5	–

COC(=O)c1ccccc1C(=O)O [phthalic acid, monomethyl ester]
[1]
Conditions	vapor or sublimation pressure
335.28 K	0.000112 kPa and 0.000118 kPa and 0.000115 kPa
337.26 K	0.000154 kPa and 0.000148 kPa and 0.000149 kPa
339.2 K	0.000184 kPa and 0.000187 kPa and 0.00019 kPa
341.24 K	0.000239 kPa and 0.000243 kPa
343.11 K	0.000298 kPa and 0.000306 kPa and 0.000301 kPa
345.27 K	0.000388 kPa and 0.000386 kPa
347.24 K	0.000471 kPa and 0.00048 kPa and 0.000468 kPa
349.12 K	0.000579 kPa and 0.000575 kPa and 0.000593 kPa
351.06 K	0.000743 kPa and 0.000733 kPa and 0.000751 kPa
353.23 K	0.000981 kPa and 0.000964 kPa and 0.000948 kPa
355.28 K	0.001233 kPa and 0.001242 kPa

Conditions	Molar enthalpy of transition or fusion [kJ/mol]	Normal melting temperature [°C]
[1]	–	84.4
[2]	21.6	–

COC(=O)c1ccc(C(=O)O)cc1 [1,4-benzenedicarboxylic acid, monomethyl ester]
[1]
Conditions	vapor or sublimation pressure
363.16 K	0.000139 kPa and 0.00014 kPa
365.15 K	0.000169 kPa and 0.000171 kPa and 0.000167 kPa
367.19 K	0.000212 kPa and 0.000209 kPa
370.18 K	0.000289 kPa and 0.000294 kPa and 0.000286 kPa
372.17 K	0.000361 kPa and 0.000363 kPa and 0.000354 kPa
374.2 K	0.000452 kPa and 0.000449 kPa and 0.000439 kPa
377.37 K	0.00063 kPa and 0.000621 kPa and 0.00062 kPa
379.26 K	0.000768 kPa and 0.000743 kPa and 0.000739 kPa
381.51 K	0.00094 kPa and 0.000931 kPa and 0.000926 kPa

Conditions	Molar enthalpy of transition or fusion [kJ/mol]	Normal melting temperature [°C]
[1]	–	219.39
[2]	37.7	–
